According to patent publication US9200046B2, “Reporter system for high throughput screening of compounds and uses thereof” (priority 2011, dated 2015):
“Also recorded” adds a separate entry of the source. Structures can show the parent of a compound that is named as a salt. Where two headings read alike, the source gives them in different places.

Columns and labels:
FLAG-Keap1 = target: T1, FLAG-Keap1 (Homo sapiens, UniProt Q14145); type: cell-based
T1 construct: expressed in transfected cells; host or cells: HEK293 (transient expression)
Description: FIG. 12. Supporting to FIG. 5. […] A: structural formulas of the compounds used; B: competition with Keap1 labeling. HEK293 cells transiently expressing FLAG-Keap1 were incubated with 200 μM competing compounds (sulforaphane, fisetin, quercetin, gedunin, TBHQ, ciclopirox, geldanamycin) and then further incubated with 10 μM sulfoxythiocarbate-alkyne (STCA) for 30 min at 37° C. FLAG-Keap1 was immunoprecipitated from cell lysates, subjected to click reaction with biotin azide on beads, and eluted with SDS-loading buffer. […] All values are presented as mean±SEM.
Keap1 labeling experiments were performed as described previously (AHN et al., Proc. Natl. […]. USA., 107: 9590-9595 (2010)) with following modifications. HEK293 cells transiently expressing FLAG-Keap1 were incubated with 200 μM competing compounds (sulforaphane, fisetin, quercetin, gedunin, TBHQ, ciclopirox, geldanamycin) in serum-free DMEM for 1 h. After washing with PBS, cells were further incubated with 10 μM sulfoxythiocarbate-alkyne (STCA) for 30 min at 37° C. FLAG-Keap1 was immunoprecipitated from cell lysates, subjected to click reaction with biotin azide on beads, and eluted with SDS-loading buffer. Eluted samples were immunoblotted with Streptavidin-HRP (Pierce) and anti-FLAG antibodies (Sigma).

[1] = tested on: Neh2-luciferase fusion protein in SH-SY5Y cells; type: cell-based, human; details: for lag-period of reporter activation: time-course of Neh2-luc activation
Description: Cells were plated at the density of 25,000 cell per well using a WellMate multichannel dispenser from Matrix (Thermo Fisher Scientific) and grown overnight on DMEM/F12+GlutaMAX (100 μl per well). Then the inhibitor was added, and the plates were incubated for a fixed time interval; the medium was removed, cells lysed in 20 μL (out of which 4 μL were taken for protein measurement), then BrightGlo™ reagent (Promega) was added to the wells and luciferase activity measured on a luminometer Lmax11384 (Molecular Devices). The reporter activation was normalized to the background luminescence divided by protein concentration. Kinetics of reporter activation were measured by adding varied fixed concentrations of an inhibitor at different time points followed by simultaneous cell lysis, protein determination, and luciferase activity measurement in the whole 96-well plate; this assay format minimizes experimental error originating from the well-known instability of luciferase reagent.

astrocytes = experiment: Intracellular GSH levels in astrocytes; type: cell-based, rat
primary immature neurons = experiment: Astrocyte-dependent neuroprotection in astrocyte-neuron coculture with HCA; type: cell-based, rat; details: astrocytes pretreated 24 hr, neurons plated with HCA
Immature neurons [2] = tested on: Immature neurons
Immature neurons [3] = experiment: Neuronal viability of isolated immature neurons treated with compounds; details: 24 hours
Nrf2-Keap1 complex = Nrf2-Keap1 complex (Homo sapiens, UniProt Q14145); experiment: cell-based; type: cell-based; details: for activation at 16 µM / activation at 32 µM: 3 h; for activation at 16 µM: read-out: Activation 100 nL; for activation at 32 µM: read-out: Activation 200 nL
ARE-luc reporter = ARE-luc reporter time-course; type: cell-based, human
Description: Human neuroblastoma SH-SY5Y cells were transfected with 1 mg of pcDNA3-Neh2LUC10, pcDNA3-ODDLUC8, pcDNA3-LUC3, and ARE-LUC/pcDNA3 (5:1) by using Lipofectamine—2000 (Invitrogen). Transfected cells were grown in the presence of 500 mg/ml Geneticin (GIBCO-Invitrogen) on DMEM/F12+ GlitaMAX (Dulbecco's modified Eagle medium Nutrient Mixture F-12 (Ham)(1:1) 1×, GIBCO 10565) medium.

[4] = 200 μM competing compound, HEK293 cells, then 10 μM STCA 30 min
[5] = Table 2, 100 nL compound, screen run at 16 and 32 μM, 3 hr
[6] = Table 2, 200 nL compound, screen run at 16 and 32 μM, 3 hr
[7] = Table 1A, 100 nL compound, screen run at 16 and 32 μM, 3 hr
[8] = Table 1A, 200 nL compound, screen run at 16 and 32 μM, 3 hr

T1 sequence (Q14145 whole entry): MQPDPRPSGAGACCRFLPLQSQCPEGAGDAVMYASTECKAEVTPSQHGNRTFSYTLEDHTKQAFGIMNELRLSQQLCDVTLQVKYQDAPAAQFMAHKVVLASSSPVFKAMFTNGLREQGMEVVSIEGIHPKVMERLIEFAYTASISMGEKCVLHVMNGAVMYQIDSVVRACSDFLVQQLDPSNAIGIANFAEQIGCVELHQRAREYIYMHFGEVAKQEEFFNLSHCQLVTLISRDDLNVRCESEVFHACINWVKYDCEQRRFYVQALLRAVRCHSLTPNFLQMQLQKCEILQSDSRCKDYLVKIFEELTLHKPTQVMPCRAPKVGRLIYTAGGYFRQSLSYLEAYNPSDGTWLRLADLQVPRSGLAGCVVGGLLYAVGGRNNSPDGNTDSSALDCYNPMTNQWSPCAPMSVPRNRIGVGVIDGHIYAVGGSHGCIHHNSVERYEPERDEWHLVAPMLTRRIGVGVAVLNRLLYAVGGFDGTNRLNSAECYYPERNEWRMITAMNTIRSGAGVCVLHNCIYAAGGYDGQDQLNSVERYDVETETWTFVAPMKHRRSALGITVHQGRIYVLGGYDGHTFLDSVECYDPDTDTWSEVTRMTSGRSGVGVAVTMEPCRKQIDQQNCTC
Nrf2-Keap1 complex, sequence (Q14145 whole entry, one chain of several): as the sequence (Q14145 whole entry) above

SMILES | activation at 16 µM (Nrf2-Keap1 complex) [%] | activation at 32 µM (Nrf2-Keap1 complex) [%] | 100 nL (luminescence) (Nrf2-Keap1 complex; [5]) | 200 nL (luminescence) (Nrf2-Keap1 complex; [6]) | other results
CC(Cc1ccc(O)c(O)c1)C(C)Cc1ccc(O)c(O)c1 (stereo not shown) [NDGA, nordihydroguaiaretic acid] | – | – | – | – | competition with Keap1 labeling by STCA (FLAG-Keap1; [4]): poorly compete with Keap1 labeling; type of reporter activation by time-course [1]: activation via a switch or receptor; GSH in astrocytes (astrocytes; 24 hr, 10 μM NDGA, 24 μM gedunin, 20 μM fisetin): clearly show a boost in GSH; astrocyte-dependent neuroprotection (primary immature neurons): induced significant neuroprotection; toxicity in isolated neurons (Immature neurons [2]): did not induce toxicity in isolated neurons
C[S+]([O-])CCCCN=C=S (stereo not shown) [sulforaphane, reference compound] | – | – | – | – | competition with Keap1 labeling by STCA (FLAG-Keap1): decent competition; also recorded: inhibits Keap1 labeling completely; type of reporter activation by time-course [1]: immediate activation but gradual stabilization over time
CC(=O)O[C@@H]1C[C@H]2C(C)(C)C(=O)C=C[C@]2(C)[C@H]2CC[C@@]3(C)[C@H](c4ccoc4)OC(=O)[C@H]4O[C@]43[C@@]21C [GEDUNIN] | 222 | 184 | 4812 | 3708 | competition with Keap1 labeling by STCA (FLAG-Keap1; [4]): very modest competition; also recorded: poorly compete with Keap1 labeling; type of reporter activation by time-course [1]: immediate activation but gradual stabilization over time; also recorded: immediate effect; GSH in astrocytes (astrocytes): clearly show a boost in GSH; astrocyte-dependent neuroprotection (primary immature neurons): induced significant neuroprotection; toxicity in isolated neurons (Immature neurons [3]): did not induce toxicity in isolated neurons
O=c1c(O)c(-c2ccc(O)c(O)c2)oc2cc(O)ccc12 [FISETIN] | 224 | 38 | 3360 | 1320 | competition with Keap1 labeling by STCA (FLAG-Keap1; [4]): very modest competition; also recorded: poorly compete with Keap1 labeling; type of reporter activation by time-course [1]: activation via a switch or receptor; GSH in astrocytes (astrocytes): does not show the same level of enhancement; astrocyte-dependent neuroprotection (primary immature neurons): induced significant neuroprotection; toxicity in isolated neurons (Immature neurons [3]): did not induce toxicity in isolated neurons
COC1=C2C[C@@H](C)C[C@H](OC)[C@H](O)[C@@H](C)/C=C(\C)[C@H](OC(N)=O)[C@@H](OC)/C=C\C=C(/C)C(=O)NC(=CC1=O)C2=O [geldanamycin, reference compound] | – | – | – | – | activation effect ([1]; in the range of 0.5-1.5 μM): 2-3 fold
Oc1ccccc1O [catechol, o-catechol] | – | – | – | – | lag-period of reporter activation [1]: 20 min
O=c1c(O)c(-c2ccc(O)c(O)c2)oc2cc(O)cc(O)c12 [quercetin, 3,5,7,3′,4′-pentahydroxyflavone] | – | – | – | – | competition with Keap1 labeling by STCA (FLAG-Keap1; [4]): very modest competition; type of reporter activation by time-course [1]: immediate activation but gradual stabilization over time
CC(C)(C)c1cc(O)ccc1O [TBHQ, tert-butylhydroquinone, reference compound] | – | – | – | – | competition with Keap1 labeling by STCA (FLAG-Keap1; [4]): very modest competition; also recorded: competes very poorly; type of reporter activation by time-course [1]: immediate activation but gradual stabilization over time; activation of Neh2-luc reporter ([1]; positive control, FIG. 1B): more than 10 fold; toxicity in isolated neurons (Immature neurons [2]): neurotoxic effects; delay of ARE-luc reporter response (ARE-luc reporter): 3 h
Cc1cc(C2CCCCC2)n(O)c(=O)c1 [ciclopirox, reference compound] | – | – | – | – | competition with Keap1 labeling by STCA (FLAG-Keap1; [4]): no competition with Keap1 labeling
CC(=O)NCCc1c[nH]c2ccc(O)cc12 [ACETYLSEROTONIN] | 61 | 31 | – | – | 100 nL (luminescence) (Nrf2-Keap1 complex; [7]): 900; 200 nL (luminescence) (Nrf2-Keap1 complex; [8]): 1056
Nc1ccccc1N [oPD, ortho-phenylene diamine] | – | – | – | – | lag-period of reporter activation [1]: 40 to 50 min
Cc1cccc2c3c(ccc12)C1=C(C(=O)C3=O)[C@@H](C)CO1 [DIHYDROTANSHINONEI] | 158 | 5 | 2480 | 572 | –
COc1ccc(-c2coc3cc(O)ccc3c2=O)c(O)c1O [KOPARIN] | 223 | 11 | 3768 | 492 | Neh2-luc reporter activation (Nrf2-Keap1 complex): > 200%
COc1cc(O)c(C(=O)c2ccccc2)cc1O [CEAROIN] | 53 | 111 | 1076 | 2988 | –
CN(C)c1ccc(O)c2c1C[C@H]1C[C@H]3[C@H](N(C)C)C(O)=C(C(N)=O)C(=O)[C@@]3(O)C(O)=C1C2=O [MINOCYCLINEHYDROCHLORIDE, reference compound] | 326 | 169 | – | – | Neh2-luc reporter activation (Nrf2-Keap1 complex): 200%
C=C1C[C@@H]2[C@H](CC[C@]3(C)C(=O)CC[C@@H]23)[C@@]2(C)C=CC(=O)C=C12 [EXEMESTANE, reference compound] | 261 | 220 | 4836 | 4668 | –
O=c1c(-c2ccc(O)cc2)coc2cc(O)cc(O)c12 [GENISTEIN] | 106 | 93 | 1980 | 1748 | –
CC(C)c1cccc(=O)c(O)c1 [HINOKITIOL] | 29 | 1 | 860 | 372 | –
COc1ccnc(C[S+]([O-])c2nc3cc(OC(F)F)ccc3[nH]2)c1OC (stereo not shown) [PANTOPRAZOLE, reference compound] | 25 | 60 | – | – | 100 nL (luminescence) (Nrf2-Keap1 complex; [7]): 904; 200 nL (luminescence) (Nrf2-Keap1 complex; [8]): 1504
CC(C)CCCC1(C)C=Cc2c(O)c3c(c(CCC(C)C)c2O1)OC12C(CC4CC1C(C)(C)OC2(CCC(C)C(=O)O)C4O)C3=O (stereo not shown) [DECAHYDROGAMBOGICACID] | 54 | 40 | 1184 | 936 | –
ClC1=C(Cl)C2(Cl)C3C(Cl)C(Cl)CC3C1(Cl)C2(Cl)Cl (stereo not shown) [CHLORDANE] | 107 | 135 | 1796 | 3540 | –
Oc1cccc2cccnc12 [8-hydroxyquinoline] | – | – | – | – | Neh2-luc reporter activation (Nrf2-Keap1 complex): 60%
CC(=O)O[C@@H]1CC2C(C)(C)C(=O)C3OC3[C@]2(C)C2CC[C@@]3(C)[C@H](c4ccoc4)OC(=O)C4OC43[C@@]21C (stereo partly shown) [EPOXYGEDUNIN] | – | – | 784 | 988 | Activation 100 nL (Nrf2-Keap1 complex): 28%; Activation 200 nL (Nrf2-Keap1 complex): 43%
CC1=CC(=O)[C@H]2C(C)(C)CCC[C@]2(C)[C@@]1(O)CCc1ccoc1 [SOLIDAGENONE] | 121 | 77 | – | – | 100 nL (luminescence) (Nrf2-Keap1 complex; [7]): 1976; 200 nL (luminescence) (Nrf2-Keap1 complex; [8]): 2220
COc1cc2c(c(OC)c1OC)-c1ccc(=O)c(O)cc1[C@@H](NC(C)=O)CC2 [COLCHICEINE] | 35 | 11 | 672 | 584 | –
CO/N=C(\C(=O)N[C@@H]1C(=O)N2C(C(=O)O)=C(COC(C)=O)CS[C@H]12)c1csc(N)n1 [CEFOTAXIMESODIUM, reference compound] | 50 | 7 | 968 | 488 | –
CC(=O)OC[C@H]1O[C@@H]([S-])[C@H](OC(C)=O)[C@@H](OC(C)=O)[C@@H]1OC(C)=O.CCP(CC)CC.[Au+] [auranofin, reference compound] | – | – | – | – | Neh2-luc reporter activation (Nrf2-Keap1 complex): 200%
COc1cccc(O)c1O [3-METHOXYCATECHOL] | 28 | -15 | 736 | 116 | –
O=C(/C=C/c1ccc(O)cc1)c1ccc(O)cc1O [ISOLIQUIRITIGENIN] | 268 | 134 | – | – | 100 nL (luminescence) (Nrf2-Keap1 complex): 4452; 200 nL (luminescence) (Nrf2-Keap1 complex): 2364
